Results as given in the supplement of paper PMC13386468.
pIC50: −log10 of the molar value.

Key:
Assay in all cases: IC50 for competition of protein binding to Kinobeads
Conditions in all cases: assay detail: Kinobeads competition in P. falciparum blood-stage lysate
UniProt Q8II42 = molecular target: UniProt Q8II42
UniProt Q8I4Y5 = molecular target: UniProt Q8I4Y5
UniProt Q8ILL2 = molecular target: UniProt Q8ILL2
UniProt O96258 = molecular target: UniProt O96258
UniProt Q8I562 = molecular target: UniProt Q8I562
UniProt Q8I4Q5 = molecular target: UniProt Q8I4Q5
UniProt O97241 = molecular target: UniProt O97241
UniProt Q8I2A1 = molecular target: UniProt Q8I2A1
UniProt Q8I574 = molecular target: UniProt Q8I574
UniProt Q8IKI9 = molecular target: UniProt Q8IKI9
UniProt Q7K6A4 = molecular target: UniProt Q7K6A4
UniProt Q8IAV6 = molecular target: UniProt Q8IAV6
UniProt Q8I3K7 = molecular target: UniProt Q8I3K7
UniProt Q8IBP8 = molecular target: UniProt Q8IBP8
UniProt Q8IL08 = molecular target: UniProt Q8IL08
UniProt Q7K6B1 = molecular target: UniProt Q7K6B1
UniProt Q8ID31 = molecular target: UniProt Q8ID31
UniProt Q8IL71 = molecular target: UniProt Q8IL71
UniProt Q8IIR7 = molecular target: UniProt Q8IIR7
UniProt O77388 = molecular target: UniProt O77388
UniProt Q8I231 = molecular target: UniProt Q8I231
UniProt Q8IEL1 = molecular target: UniProt Q8IEL1
UniProt Q8ILC8 = molecular target: UniProt Q8ILC8
UniProt Q8I1Q9 = molecular target: UniProt Q8I1Q9
UniProt B9ZSI3 = molecular target: UniProt B9ZSI3
UniProt Q8IDT0 = molecular target: UniProt Q8IDT0
UniProt Q8IE41 = molecular target: UniProt Q8IE41
UniProt Q8IKU0 = molecular target: UniProt Q8IKU0
UniProt Q8I283 = molecular target: UniProt Q8I283
UniProt Q8I3F1 = molecular target: UniProt Q8I3F1
UniProt Q8ID49 = molecular target: UniProt Q8ID49
UniProt Q8III5 = molecular target: UniProt Q8III5
UniProt Q8IJX8 = molecular target: UniProt Q8IJX8
UniProt Q8IJQ9 = molecular target: UniProt Q8IJQ9
UniProt Q8I6T2 = molecular target: UniProt Q8I6T2
UniProt Q8IBP0 = molecular target: UniProt Q8IBP0
UniProt Q8IHR5 = molecular target: UniProt Q8IHR5
UniProt Q8IC06 = molecular target: UniProt Q8IC06
UniProt Q8IDF0 = molecular target: UniProt Q8IDF0
UniProt Q8IJG6 = molecular target: UniProt Q8IJG6
UniProt Q8I2Q0 = molecular target: UniProt Q8I2Q0
UniProt Q8ILW8 = molecular target: UniProt Q8ILW8
UniProt C0H5J6 = molecular target: UniProt C0H5J6
UniProt Q8IHR4 = molecular target: UniProt Q8IHR4
UniProt Q8I4Z2 = molecular target: UniProt Q8I4Z2
UniProt C0H571 = molecular target: UniProt C0H571
UniProt Q7K6B0 = molecular target: UniProt Q7K6B0
UniProt O97225 = molecular target: UniProt O97225
UniProt Q8I2X4 = molecular target: UniProt Q8I2X4
UniProt Q8IFM0 = molecular target: UniProt Q8IFM0
UniProt Q8IAV1 = molecular target: UniProt Q8IAV1
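Further: native unpurified kinases from lysate captured on beads bearing immobilized kinase inhibitors, with bead-bound kinases quantified by mass spectrometry across compound doses.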

UniProt Q8IIR7, sequence (Q8IIR7 whole entry): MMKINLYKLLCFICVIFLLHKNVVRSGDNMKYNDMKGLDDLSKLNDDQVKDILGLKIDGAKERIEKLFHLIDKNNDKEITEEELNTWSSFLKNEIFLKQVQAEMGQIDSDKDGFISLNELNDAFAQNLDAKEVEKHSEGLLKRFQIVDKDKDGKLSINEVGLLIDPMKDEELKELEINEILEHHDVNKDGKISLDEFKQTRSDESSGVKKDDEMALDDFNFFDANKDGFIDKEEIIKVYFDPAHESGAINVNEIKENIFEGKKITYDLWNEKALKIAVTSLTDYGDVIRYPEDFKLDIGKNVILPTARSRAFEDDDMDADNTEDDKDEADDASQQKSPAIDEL
UniProt Q8IJX8, sequence (Q8IJX8 whole entry): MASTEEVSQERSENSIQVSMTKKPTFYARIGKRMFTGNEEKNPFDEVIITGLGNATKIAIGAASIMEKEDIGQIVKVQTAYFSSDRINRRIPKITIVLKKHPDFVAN
UniProt C0H571, sequence (C0H571 whole entry): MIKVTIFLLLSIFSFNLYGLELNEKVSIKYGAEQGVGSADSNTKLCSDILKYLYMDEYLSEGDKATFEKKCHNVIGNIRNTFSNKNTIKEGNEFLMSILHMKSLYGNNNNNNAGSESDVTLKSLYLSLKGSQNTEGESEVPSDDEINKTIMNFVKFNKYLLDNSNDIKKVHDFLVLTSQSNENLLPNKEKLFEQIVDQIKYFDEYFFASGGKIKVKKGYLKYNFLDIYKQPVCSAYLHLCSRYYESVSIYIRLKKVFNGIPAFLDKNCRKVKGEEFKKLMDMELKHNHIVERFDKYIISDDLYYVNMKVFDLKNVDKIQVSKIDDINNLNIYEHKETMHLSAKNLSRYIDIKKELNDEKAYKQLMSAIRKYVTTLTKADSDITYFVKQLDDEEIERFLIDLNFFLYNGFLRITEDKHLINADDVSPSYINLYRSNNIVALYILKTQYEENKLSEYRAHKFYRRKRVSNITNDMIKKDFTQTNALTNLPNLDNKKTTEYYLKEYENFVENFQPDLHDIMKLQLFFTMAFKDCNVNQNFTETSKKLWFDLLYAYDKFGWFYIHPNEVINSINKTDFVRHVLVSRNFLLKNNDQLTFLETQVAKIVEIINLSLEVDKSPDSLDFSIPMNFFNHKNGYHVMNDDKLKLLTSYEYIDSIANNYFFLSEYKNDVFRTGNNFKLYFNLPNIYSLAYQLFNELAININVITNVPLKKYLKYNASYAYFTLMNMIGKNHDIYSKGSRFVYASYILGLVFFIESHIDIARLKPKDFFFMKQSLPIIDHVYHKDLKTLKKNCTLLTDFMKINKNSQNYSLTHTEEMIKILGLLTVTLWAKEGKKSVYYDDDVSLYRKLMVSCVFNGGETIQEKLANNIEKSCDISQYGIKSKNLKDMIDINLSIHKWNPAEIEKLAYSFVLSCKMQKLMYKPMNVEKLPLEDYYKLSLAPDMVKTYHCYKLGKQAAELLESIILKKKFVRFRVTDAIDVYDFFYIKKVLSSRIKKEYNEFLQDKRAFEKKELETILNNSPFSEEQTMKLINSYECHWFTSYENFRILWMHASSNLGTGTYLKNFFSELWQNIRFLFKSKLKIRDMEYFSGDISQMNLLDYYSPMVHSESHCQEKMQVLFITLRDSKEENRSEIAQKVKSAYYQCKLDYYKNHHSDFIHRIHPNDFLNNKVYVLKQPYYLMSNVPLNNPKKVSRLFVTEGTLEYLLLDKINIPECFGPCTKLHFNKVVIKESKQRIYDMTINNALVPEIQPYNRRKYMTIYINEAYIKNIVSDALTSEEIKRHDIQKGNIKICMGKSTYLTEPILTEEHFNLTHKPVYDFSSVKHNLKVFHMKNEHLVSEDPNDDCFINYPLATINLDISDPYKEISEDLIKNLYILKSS
UniProt Q8IKU0, sequence (Q8IKU0 whole entry): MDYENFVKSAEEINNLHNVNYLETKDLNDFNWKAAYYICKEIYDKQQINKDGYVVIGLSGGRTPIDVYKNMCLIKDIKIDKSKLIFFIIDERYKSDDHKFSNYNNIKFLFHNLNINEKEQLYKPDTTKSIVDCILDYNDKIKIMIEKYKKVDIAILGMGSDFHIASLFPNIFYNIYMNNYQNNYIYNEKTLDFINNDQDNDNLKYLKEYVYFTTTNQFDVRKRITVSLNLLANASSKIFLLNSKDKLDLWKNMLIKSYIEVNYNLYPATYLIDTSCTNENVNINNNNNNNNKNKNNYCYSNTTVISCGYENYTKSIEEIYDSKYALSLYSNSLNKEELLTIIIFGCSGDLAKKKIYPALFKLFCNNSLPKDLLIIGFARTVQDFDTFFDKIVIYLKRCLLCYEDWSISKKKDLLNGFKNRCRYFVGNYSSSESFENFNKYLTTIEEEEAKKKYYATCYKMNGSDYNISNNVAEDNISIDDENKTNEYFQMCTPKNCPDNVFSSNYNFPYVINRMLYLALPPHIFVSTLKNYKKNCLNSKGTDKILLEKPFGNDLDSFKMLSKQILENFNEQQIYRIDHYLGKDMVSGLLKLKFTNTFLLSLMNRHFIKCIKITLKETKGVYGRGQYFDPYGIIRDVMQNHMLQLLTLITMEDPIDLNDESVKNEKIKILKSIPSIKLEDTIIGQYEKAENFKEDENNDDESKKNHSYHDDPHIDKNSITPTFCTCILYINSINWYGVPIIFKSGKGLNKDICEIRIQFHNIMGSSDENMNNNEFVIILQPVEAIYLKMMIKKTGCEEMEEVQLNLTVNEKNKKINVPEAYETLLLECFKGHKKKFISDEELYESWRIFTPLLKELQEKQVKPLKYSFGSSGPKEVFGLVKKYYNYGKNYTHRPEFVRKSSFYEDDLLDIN

Question: Which results are given for `O=c1[nH]c2ccc(Cl)cc2c(NC2CN3CCC2CC3)c1-c1nc2ccccc2[nH]1` (stereo unspecified) [CHIR-124]?
Answer: pIC50 (UniProt Q8II42): < 4.70; pIC50 (UniProt Q8I4Y5): < 4.70; pIC50 (UniProt Q8ILL2): < 4.70; pIC50 (UniProt O96258): < 4.70; pIC50 (UniProt Q8I562): < 4.70; pIC50 (UniProt Q8I4Q5): < 4.70; pIC50 (UniProt O97241): < 4.70; pIC50 (UniProt Q8I2A1): < 4.70; pIC50 (UniProt Q8I574): < 4.70; pIC50 (UniProt Q8IKI9): < 4.70; pIC50 (UniProt Q7K6A4): < 4.70; pIC50 (UniProt Q8IAV6): < 4.70; pIC50 (UniProt Q8I3K7): < 4.70; pIC50 (UniProt Q8IBP8): < 4.70; pIC50 (UniProt Q8IL08): < 4.70; pIC50 (UniProt Q7K6B1): < 4.70; pIC50 (UniProt Q8ID31): < 4.70; pIC50 (UniProt Q8IL71): < 4.70; pIC50 (UniProt Q8IIR7): < 4.70; pIC50 (UniProt O77388): < 4.70; pIC50 (UniProt Q8I231): < 4.70; pIC50 (UniProt Q8IEL1): 5.54; pIC50 (UniProt Q8ILC8): < 4.70; pIC50 (UniProt Q8I1Q9): < 4.70; pIC50 (UniProt B9ZSI3): < 4.70; pIC50 (UniProt Q8IDT0): < 4.70; pIC50 (UniProt Q8IE41): 6.43; pIC50 (UniProt Q8IKU0): < 4.70; pIC50 (UniProt Q8I283): < 4.70; pIC50 (UniProt Q8I3F1): < 4.70; pIC50 (UniProt Q8ID49): < 4.70; pIC50 (UniProt Q8III5): < 4.70; pIC50 (UniProt Q8IJX8): < 4.70; pIC50 (UniProt Q8IJQ9): < 4.70; pIC50 (UniProt Q8I6T2): < 4.70; pIC50 (UniProt Q8IBP0): < 4.70; pIC50 (UniProt Q8IHR5): < 4.70; pIC50 (UniProt Q8IC06): < 4.70; pIC50 (UniProt Q8IDF0): < 4.70; pIC50 (UniProt Q8IJG6): < 4.70; pIC50 (UniProt Q8I2Q0): < 4.70; pIC50 (UniProt Q8ILW8): < 4.70; pIC50 (UniProt C0H5J6): < 4.70; pIC50 (UniProt Q8IHR4): < 4.70; pIC50 (UniProt Q8I4Z2): < 4.70; pIC50 (UniProt C0H571): < 4.70; pIC50 (UniProt Q7K6B0): < 4.70; pIC50 (UniProt O97225): < 4.70; pIC50 (UniProt Q8I2X4): < 4.70; pIC50 (UniProt Q8IFM0): < 4.70; pIC50 (UniProt Q8IAV1): < 4.70
